Reference: US6110400A, “Fulgimide compound and use thereof and composition containing said compound” (Tokuyama Corporation, priority 1996, dated 2000)

Assay: Color development of photochromic cured product (color density, maximum absorption wavelength), xenon lamp 120 seconds
Assay type: physicochemical
Protocol: To 100 parts by weight of a polymerizable monomer consisting of 45 parts by weight of 4G, 45 parts by weight of 3PG, 9 parts by weight of GMA and 1 part by weight of MSD were added 0.05 part by weight of fulgimide compound I-(1) and 1 part by weight of Perbutyl ND as a polymerization catalyst. The solution was stirred thoroughly until the content thereof was completely dissolved. The solution was poured into a mold constituted by a glass plate and a gasket composed of an ethylene-vinyl acetate copolymer. The mold was placed in an air oven and the solution therein was subjected to polymerization at 35 to 90° C. for 20 hours. After the completion of the polymerization, the obtained photochromic cured product was removed from the glass plate of the mold.
The obtained photochromic cured product having a thickness of 2 mm was exposed to the light emitted from a xenon lamp, model L-2480 (300 W) SHL-100, manufactured by Hamamatsu Photonics, through Aero Mass Filter (a product of Corning Co.), at 20±1° C. for 120 seconds at a beam intensity (on the polymer surface of 365 nm=2.4 mW/cm^2 and 254 nm=24 μW/cm^2, whereby the cured product was allowed to develop a color. A value [ε (120 seconds)-ε (0 seconds)] was calculated and taken as the "color density" of the developed color. In the above expression, ε (120 seconds) is an absorbance at maximum absorption wavelength after 120 seconds of irradiation, and ε (0 seconds) is an absorbance at maximum absorption wavelength under no irradiation. […]
The procedure of Example 15 was repeated except that the composition of the polymerizable monomer was changed as shown in Table 2. […]

[1] = maximum absorption wavelength, monomers 3PG:45,4G:45,GMA:9,MSD:1
[2] = monomers 3PG:45,4G:45,GMA:9,MSD:1, 0.05 part fulgimide, 2 mm, 20±1° C., 120 seconds irradiation
[3] = Ex. 29, monomers 4G:65,3G:15,GMA:9,MS:8,HEMA:2,MSD:1
[4] = Ex. 30, monomers BR-MA:20,BzMA:25,3PG:37,GMA:9,MS:8,MSD:1
[5] = Ex. 31, monomers BPE-100N:45,3G:37,GMA:9,MS:8,MSD:1

| Compound | max [1] | Color density [2] | further results |
| --- | --- | --- | --- |
| CC1=C2C(=O)N(CC#N)C(=O)C2C2(c3sc(-c4ccccc4)cc31)C1CC3CC(C1)CC2C3 (stereo not drawn) [Fulgimide compound D, reference compound] | 568 nm | 0.72 Abs |  |
| CC1=C2C(=O)N(c3cccc(C(F)(F)F)c3)C(=O)C2C2(c3sc(-c4ccccc4)cc31)C1CC3CC(C1)CC2C3 (stereo not drawn) [I-(4), 6,7-dihydro-4-methyl-2-phenyl-N-(3'-trifluoromethylphenyl)spirobenzothiophenecarboxyimide-7,2'-tricyclo[3.3.1.13,7]decane] | 566 nm | 1.22 Abs |  |
| CC1=C2C(=O)N(C#N)C(=O)C2C2(c3sc(-c4ccccc4)cc31)C1CC3CC(C1)CC2C3 (stereo not drawn) [Fulgimide compound E, reference compound] | 620 nm | 0.74 Abs |  |
| CC1=C2C(=O)N(c3ccccc3)C(=O)C2C2(c3sc(-c4ccccc4)cc31)C1CC3CC(C1)CC2C3 (stereo not drawn) [Fulgimide compound A] | 555 nm | 0.51 Abs |  |
| COC(=O)c1cccc(N2C(=O)C3=C(C)c4ccsc4C4(C5CC6CC(C5)CC4C6)C3C2=O)c1 (stereo not drawn) [I-(10)] | 550 nm | 1.14 Abs |  |
| COc1ccc(-c2cc3c(s2)C2(C4CC5CC(C4)CC2C5)C2C(=O)N(CC#N)C(=O)C2=C3C)cc1 (stereo not drawn) [Fulgimide compound F, reference compound] | 578 nm | 0.78 Abs |  |
| CC1=C2C(=O)N(c3cccc([N+](=O)[O-])c3)C(=O)C2C2(c3sccc31)C1CC3CC(C1)CC2C3 (stereo not drawn) [I-(5), 6,7-dihydro-4-methyl-N-(3'-nitrophenyl)spirobenzothiophenecarboxyimide-7,2'-tricyclo[3.3.1.13,7]decane] | 572 nm | 1.36 Abs |  |
| COc1ccc(-c2cc3c(s2)C2(C4CC5CC(C4)CC2C5)C2C(=O)N(c4cccc(C#N)c4)C(=O)C2=C3C)cc1 (stereo not drawn) [I-(1), N-(3'-cyanophenyl)-6,7-dihydro-4-methyl-2-(4'-methoxyphenyl)spirobenzothiophenecarboxyimide-7,2'-tricyclo[3.3.1.13,7]decane] | 582 nm | 1.33 Abs | Color density [3]: 1.28 Abs; max [3]: 584 nm; Color density [4]: 1.29 Abs; max [4]: 590 nm; Color density [5]: 1.11 Abs; max [5]: 590 nm; Color density (Ex. 32, monomer 4G:100): 1.41 Abs; max (Ex. 32, monomer 4G:100): 584 nm |
| CC1=C2C(=O)N(c3ccccc3C#N)C(=O)C2C2(c3sc(-c4ccccc4)cc31)C1CC3CC(C1)CC2C3 (stereo not drawn) [Fulgimide compound B, reference compound] | 570 nm | 0.64 Abs |  |
| CC1=C2C(=O)N(c3cccc(C(=O)c4ccccc4)c3)C(=O)C2C2(c3sccc31)C1CC3CC(C1)CC2C3 (stereo not drawn) [I-(11)] | 563 nm | 1.18 Abs |  |
| CC1=C2C(=O)N(c3ccc(C#N)cc3)C(=O)C2C2(c3sc(-c4ccccc4)cc31)C1CC3CC(C1)CC2C3 (stereo not drawn) [Fulgimide compound C, reference compound] | 570 nm | 0.63 Abs |  |
| CC(=O)c1cccc(N2C(=O)C3=C(C)c4cc(C)oc4C4(C5CCC4CC5)C3C2=O)c1 (stereo not drawn) [I-(6)] | 525 nm | 1.06 Abs |  |
| CC1=C2C(=O)N(c3cccc(C(=O)Oc4ccccc4)c3)C(=O)C2C2(c3sccc31)C1CC3CC(C1)CC2C3 (stereo not drawn) [I-(14)] | 562 nm | 1.12 Abs |  |
| N#Cc1cccc(N2C(=O)C3=C(C4CC4)c4ccsc4C4(C5CC6CC(C5)CC4C6)C3C2=O)c1 (stereo not drawn) [I-(3), N-(3'-cyanophenyl)-4-cyclopropyl-6,7-dihydrospirobenzothiophenecarboxyimide-7,2'-tricyclo[3.3.1.13,7]decane] | 560 nm | 1.42 Abs |  |
| CC1=C2C(=O)N(c3cccc(S(=O)(=O)c4ccccc4)c3)C(=O)C2C2(c3sccc31)C1CC3CC(C1)CC2C3 (stereo not drawn) [I-(13)] | 564 nm | 1.25 Abs |  |
| CC1=C2C(=O)N(c3cccc(S(=O)O)c3)C(=O)C2C2(c3sccc31)C1CC3CC(C1)CC2C3 (stereo not drawn) [I-(12)] | 567 nm | 1.22 Abs |  |
| CC1=C2C(=O)N(c3cc(C#N)cc(C#N)c3)C(=O)C2C2(c3sc(-c4ccccc4)cc31)C1CC3CC(C1)CC2C3 (stereo not drawn) [I-(8), N-(3',5'-dicyanophenyl)-6,7-dihydro-4-methyl-2-phenylspirobenzothiophenecarboxyimide-7,2'-tricyclo[3.3.1.13,7]decane] | 582 nm | 1.58 Abs |  |
| CC1=C2C(=O)N(c3cccc(C#N)c3)C(=O)C2C2(c3sc(-c4ccccc4)cc31)C1CC3CC(C1)CC2C3 (stereo not drawn) [I-(2), N-(3'-cyanophenyl)-6,7-dihydro-4-methyl-2-phenylspirobenzothiophenecarboxyimide-7,2'-tricyclo[3.3.1.13,7]decane] | 570 nm | 1.25 Abs |  |
| CC1=C2C(=O)N(c3cccc(F)c3)C(=O)C2C2(c3sc(C)cc31)C1CC3CC(C1)CC2C3 (stereo not drawn) [I-(9)] | 574 nm | 1.43 Abs |  |
| CC1=C2C(=O)N(c3cccc(S(C)(=O)=O)c3)C(=O)C2C2(c3occc31)C1CCCC2CCC1 (stereo not drawn) [I-(7)] | 530 nm | 1.20 Abs |  |
